In patent publication US11091501B2, “Heterocyclic compounds as RSV inhibitors” (Enanta Pharmaceuticals, Inc., priority 2017, dated 2021):

System: Human RSV-A (“Long” strain)
Experiment: RSV in vitro cytoprotection assay (CPE, ATPlite) in HEp-2 cells
Type: cell-based
Details: human respiratory syncytial virus, 96 h; HEp-2 cells, 4-day incubation, ATPlite readout; read-out: Human RSV-A (“Long” strain) EC50
Outline: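 HEp-2 cells (8,000/well) given 2-fold serial compound dilutions in duplicate, then infected with sucrose-stabilised RSV-A Long stock. After 4 days, cell viability read by ATPlite luminescence, with a parallel uninfected plate for cytotoxicity. EC50 binned A<0.01 μM, B 0.01-0.05 μM, C>0.05 μM.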

Compound	EC50
O=C(Nc1ccc(C(=O)N2CCc3cc(-c4nnco4)sc3-c3ccc(F)cc32)cc1)c1cccnc1N1CC2(CCOCC2)C1 [Example 142]	> 50 nM
O=C(Nc1c(F)cc(F)cc1Cl)c1cc2c(s1)-c1ccc(F)cc1N(C(=O)c1ccc(NC(=O)c3cc(C(F)F)cnc3N3CC4(CCOCC4)C3)cc1)CC2 [Example 144]	10 to 50 nM
O=C(Nc1c(F)cccc1Cl)c1cc2c(s1)-c1ccc(F)cc1N(C(=O)c1ccc(NC(=O)c3cc(C(F)F)cnc3N3CC4(CCOCC4)C3)cc1)CC2 [Example 145]	10 to 50 nM
O=C(Nc1c(F)cccc1F)c1cc2c(s1)-c1ccc(F)cc1N(C(=O)c1ccc(NC(=O)c3cc(C(F)F)cnc3N3CC4(CCOCC4)C3)cc1)CC2 [Example 146]	10 to 50 nM
Cc1ccc(C(=O)Nc2ccc(C(=O)N3CCc4cc(-c5nc6cccc(Cl)c6[nH]5)sc4-c4ccc(F)cc43)cc2)c(N2CC3(CCOCC3)C2)n1 [Example 148]	10 to 50 nM
Cc1cnc(N2CC3(CCOCC3)C2)c(C(=O)Nc2ccc(C(=O)N3CCc4cc(-c5nc(C)cs5)sc4-c4ccc(F)cc43)cc2)c1 [Example 152]	10 to 50 nM
Cc1cnc(N2CC3(CCOCC3)C2)c(C(=O)Nc2ccc(C(=O)N3CCc4cc(-c5nc(C)c(C)s5)sc4-c4ccc(F)cc43)cc2)c1 [Example 153]	10 to 50 nM
Cc1cnc(N2CC3(CCOCC3)C2)c(C(=O)Nc2ccc(C(=O)N3CCc4cc(-c5ncc(C)o5)sc4-c4ccc(F)cc43)cc2)c1 [Example 156]	10 to 50 nM
Cc1cnc(N2CC3(CCOCC3)C2)c(C(=O)Nc2ccc(C(=O)N3CCc4cc(-c5nc(C)co5)sc4-c4ccc(F)cc43)cc2)c1 [Example 157]	10 to 50 nM
Cc1cnc(N2CC3(CCOCC3)C2)c(C(=O)Nc2ccc(C(=O)N3CCc4cc(-c5ncco5)sc4-c4ccc(F)cc43)cc2)c1 [Example 169]	< 10 nM
Cc1cnc(N2CC3(CCOCC3)C2)c(C(=O)Nc2ccc(C(=O)N3CCc4cc(-c5c[nH]nc5C5CC5)sc4-c4ccc(F)cc43)cc2)c1 [Example 170]	< 10 nM
CCn1nccc1-c1cc2c(s1)-c1ccc(F)cc1N(C(=O)c1ccc(NC(=O)c3cc(C)cnc3N3CC4(CCOCC4)C3)cc1)CC2 [Example 171]	< 10 nM
Cc1cnc(N2CC3(CCOCC3)C2)c(C(=O)Nc2ccc(C(=O)N3CCc4cc(-c5cn(C)nc5N)sc4-c4ccc(F)cc43)cc2)c1 [Example 172]	< 10 nM
Cc1cnc(N2CC3(CCOCC3)C2)c(C(=O)Nc2ccc(C(=O)N3CCc4cc(-c5c[nH]c6ncccc56)sc4-c4ccc(F)cc43)cc2)c1 [Example 173]	< 10 nM
Cc1cnc(N2CC3(CCOCC3)C2)c(C(=O)Nc2ccc(C(=O)N3CCc4cc(-c5c[nH]c6ccc(Cl)cc56)sc4-c4ccc(F)cc43)cc2)c1 [Example 174]	> 50 nM
Cc1cnc(N2CC3(CCOCC3)C2)c(C(=O)Nc2ccc(C(=O)N3CCc4cc(-c5c[nH]c6c(Cl)cccc56)sc4-c4ccc(F)cc43)cc2)c1 [Example 175]	> 50 nM
Cc1cnc(N2CC3(CCOCC3)C2)c(C(=O)Nc2ccc(C(=O)N3CCc4cc(-c5c[nH]c6ccc(C)cc56)sc4-c4ccc(F)cc43)cc2)c1 [Example 176]	> 50 nM
Cc1cnc(N2CC3(CCOCC3)C2)c(C(=O)Nc2ccc(C(=O)N3CCc4cc(-c5c[nH]c6c(C)cccc56)sc4-c4ccc(F)cc43)cc2)c1 [Example 177]	10 to 50 nM
Cc1cnc(N2CC3(CCOCC3)C2)c(C(=O)Nc2ccc(C(=O)N3CCc4cc(-c5ccc6[nH]ncc6c5)sc4-c4ccc(F)cc43)cc2)c1 [Example 178]	< 10 nM
Cc1cnc(N2CC3(CCOCC3)C2)c(C(=O)Nc2ccc(C(=O)N3CCc4cc(-c5cnc6[nH]ncc6c5)sc4-c4ccc(F)cc43)cc2)c1 [Example 179]	< 10 nM
Cc1cnc(N2CC3(CCOCC3)C2)c(C(=O)Nc2ccc(C(=O)N3CCc4cc(-c5c[nH]c6cccnc56)sc4-c4ccc(F)cc43)cc2)c1 [Example 180]	10 to 50 nM
Cc1cnc(N2CC3(CCOCC3)C2)c(C(=O)Nc2ccc(C(=O)N3CCc4cc(-c5n[nH]c6ccccc56)sc4-c4ccc(F)cc43)cc2)c1 [Example 181]	< 10 nM
Cc1cnc(N2CC3(CCOCC3)C2)c(C(=O)Nc2ccc(C(=O)N3CCc4cc(-c5ccc[nH]c5=O)sc4-c4ccc(F)cc43)cc2)c1 [Example 182]	< 10 nM
Cc1cnc(N2CC3(CCOCC3)C2)c(C(=O)Nc2ccc(C(=O)N3CCc4cc(-c5cc[nH]c(=O)c5)sc4-c4ccc(F)cc43)cc2)c1 [Example 183]	< 10 nM
Cc1cnc(N2CC3(CCOCC3)C2)c(C(=O)Nc2ccc(C(=O)N3CCc4cc(-c5ccc(=O)[nH]c5)sc4-c4ccc(F)cc43)cc2)c1 [Example 184]	< 10 nM

More lines, now with the values ahead:

EC50	Compound
< 10 nM	Cc1cnc(N2CC3(CCOCC3)C2)c(C(=O)Nc2ccc(C(=O)N3CCc4c(sc(-c5nnco5)c4F)-c4ccc(F)cc43)cc2)c1 [Example 143]
< 10 nM	Cc1ccc(C(=O)Nc2ccc(C(=O)N3CCc4cc(-c5nc6ccccc6[nH]5)sc4-c4ccc(F)cc43)cc2)c(N2CC3(CCOCC3)C2)n1 [Example 147]
< 10 nM	Cc1ccc(C(=O)Nc2ccc(C(=O)N3CCc4cc(-c5nc6cccc(F)c6[nH]5)sc4-c4ccc(F)cc43)cc2)c(N2CC3(CCOCC3)C2)n1 [Example 149]
< 10 nM	Cc1cnc(N2CC3(CCOCC3)C2)c(C(=O)Nc2ccc(C(=O)N3CCc4cc(-c5nnc(C)s5)sc4-c4ccc(F)cc43)cc2)c1 [Example 150]
< 10 nM	Cc1cnc(N2CC3(CCOCC3)C2)c(C(=O)Nc2ccc(C(=O)N3CCc4cc(-c5ncc(C)s5)sc4-c4ccc(F)cc43)cc2)c1 [Example 151]
< 10 nM	Cc1cnc(N2CC3(CCOCC3)C2)c(C(=O)Nc2ccc(C(=O)N3CCc4cc(-c5nccs5)sc4-c4ccc(F)cc43)cc2)c1 [Example 154]
< 10 nM	Cc1cnc(N2CC3(CCOCC3)C2)c(C(=O)Nc2ccc(C(=O)N3CCc4cc(-c5ncns5)sc4-c4ccc(F)cc43)cc2)c1 [Example 155]
< 10 nM	Cc1cnc(N2CC3(CCOCC3)C2)c(C(=O)Nc2ccc(C(=O)N3CCc4cc(-c5nc(C)c(C)[nH]5)sc4-c4ccc(F)cc43)cc2)c1 [Example 158]
< 10 nM	Cc1cnc(N2CC3(CCOCC3)C2)c(C(=O)Nc2ccc(C(=O)N3CCc4cc(-c5ccnn5C)sc4-c4ccc(F)cc43)cc2)c1 [Example 161]
< 10 nM	Cc1cnc(N2CC3(CCOCC3)C2)c(C(=O)Nc2ccc(C(=O)N3CCc4cc(-c5ccncc5F)sc4-c4ccc(F)cc43)cc2)c1 [Example 162]
< 10 nM	Cc1cnc(N2CC3(CCOCC3)C2)c(C(=O)Nc2ccc(C(=O)N3CCc4cc(-c5ccc(F)cn5)sc4-c4ccc(F)cc43)cc2)c1 [Example 163]
< 10 nM	Cc1cnc(N2CC3(CCOCC3)C2)c(C(=O)Nc2ccc(C(=O)N3CCc4cc(-c5cccnc5F)sc4-c4ccc(F)cc43)cc2)c1 [Example 164]
< 10 nM	Cc1cnc(N2CC3(CCOCC3)C2)c(C(=O)Nc2ccc(C(=O)N3CCc4cc(-c5ncccc5F)sc4-c4ccc(F)cc43)cc2)c1 [Example 165]
< 10 nM	Cc1cnc(N2CC3(CCOCC3)C2)c(C(=O)Nc2ccc(C(=O)N3CCc4cc(-c5ccncc5)sc4-c4ccc(F)cc43)cc2)c1 [Example 166]
< 10 nM	Cc1cnc(N2CC3(CCOCC3)C2)c(C(=O)Nc2ccc(C(=O)N3CCc4cc(-c5cccnc5)sc4-c4ccc(F)cc43)cc2)c1 [Example 167]
< 10 nM	Cc1cnc(N2CC3(CCOCC3)C2)c(C(=O)Nc2ccc(C(=O)N3CCc4cc(-c5ccccn5)sc4-c4ccc(F)cc43)cc2)c1 [Example 168]
